ChEMBL document CHEMBL1147151, “In vitro optimization of non-small cell lung cancer activity with troxacitabine, L-1,3-dioxolane-cytidine, prodrugs” (J Med Chem, 2007)

Assays:
SW1573 = test: Cytotoxicity against SW1573 cells after 72 hrs by SRB assay; type: functional, cell-based; conditions: Homo sapiens, SW1573, 72 h
A549 = test: Cytotoxicity against A549 cells after 72 hrs by SRB assay; type: functional, cell-based; conditions: Homo sapiens, A549, 72 h

| SMILES | IC50 (SW1573) [µM] | IC50 (A549) [µM] |
| --- | --- | --- |
| O=C(Nc1ccn([C@@H]2CO[C@H](CO)O2)c(=O)n1)c1ccc(Cl)cc1Cl | 14.3 | 9.83 |
| O=C(Nc1ccn([C@@H]2CO[C@H](CO)O2)c(=O)n1)c1ccccc1 | 13.7 | 8.53 |
| CCCCC(=O)Nc1ccn([C@@H]2CO[C@H](CO)O2)c(=O)n1 | 9.13 | 5.23 |
| O=C(Nc1ccn([C@@H]2CO[C@H](CO)O2)c(=O)n1)c1ccc(F)cc1 | 15.3 | 8.67 |
| CCCCCCCCC(=O)Nc1ccn([C@@H]2CO[C@H](CO)O2)c(=O)n1 | 0.276 | 0.046 |
| CCCCCCCCCCCCCCCC(=O)Nc1ccn([C@@H]2CO[C@H](CO)O2)c(=O)n1 | 0.02 | 0.004 |
| Nc1ccn([C@@H]2O[C@H](CO)[C@@H](O)C2(F)F)c(=O)n1 [GEMCITABINE] | 8.3 | 13.1 |
| CC(=O)Nc1ccn([C@@H]2CO[C@H](CO)O2)c(=O)n1 | 10.7 | 6.87 |
| O=C(Nc1ccn([C@@H]2CO[C@H](CO)O2)c(=O)n1)C1CCCCC1 | 14 | 7.37 |
| CCCC(=O)Nc1ccn([C@@H]2CO[C@H](CO)O2)c(=O)n1 | 8.07 | 6.6 |
| CCCCCCCCCCCCCCCCCC(=O)Nc1ccn([C@@H]2CO[C@H](CO)O2)c(=O)n1 | 0.125 | 0.025 |
| COc1ccc(C(=O)Nc2ccn([C@@H]3CO[C@H](CO)O3)c(=O)n2)cc1 | 10 | 3.5 |
| O=C(Nc1ccn([C@@H]2CO[C@H](CO)O2)c(=O)n1)c1ccc(Br)cc1 | 8.87 | 4.53 |
| O=C(Nc1ccn([C@@H]2CO[C@H](CO)O2)c(=O)n1)C1CCCC1 | 8.8 | 2.97 |
| CCCCCCCCCCCCCCCCCCCC(=O)Nc1ccn([C@@H]2CO[C@H](CO)O2)c(=O)n1 | 0.15 | 0.03 |
| O=C(Nc1ccn([C@@H]2CO[C@H](CO)O2)c(=O)n1)c1ccc(Cl)cc1 | 2.77 | 0.41 |
| CCCCCCC(=O)Nc1ccn([C@@H]2CO[C@H](CO)O2)c(=O)n1 | 2.4 | 1.04 |
| Nc1ccn([C@@H]2CO[C@H](CO)O2)c(=O)n1 [TROXACITABINE] | 2.3 | 0.68 |
| CCCCCCCCCC(=O)Nc1ccn([C@@H]2CO[C@H](CO)O2)c(=O)n1 | 0.04 | 0.024 |
| O=C(Nc1ccn([C@@H]2CO[C@H](CO)O2)c(=O)n1)C1CC1 | 22 | 18.7 |
| CCCCCCCCCCCC(=O)Nc1ccn([C@@H]2CO[C@H](CO)O2)c(=O)n1 | 0.03 | 0.015 |
| CCCCCCCCCCCCCCCCCCCCCC(=O)Nc1ccn([C@@H]2CO[C@H](CO)O2)c(=O)n1 | 0.9 | 0.5 |
